Assay results taken from publication PMC6017357, “In Vitro Inhibitory Effects of Synthetic Cannabinoid EAM-2201 on Cytochrome P450 and UDP-Glucuronosyltransferase Enzyme Activities in Human Liver Microsomes” (Molecules : A Journal of Synthetic Chemistry and Natural …, 2018).

Target: T1, UGT2B7 (Homo sapiens, UniProt P16662)
T1 construct: ultrapooled human liver microsomes (0.2 mg/mL), 5 mM UDPGA; from tissue; host or cells: ultrapooled human liver microsomes
T1 sequence (P16662 24-529): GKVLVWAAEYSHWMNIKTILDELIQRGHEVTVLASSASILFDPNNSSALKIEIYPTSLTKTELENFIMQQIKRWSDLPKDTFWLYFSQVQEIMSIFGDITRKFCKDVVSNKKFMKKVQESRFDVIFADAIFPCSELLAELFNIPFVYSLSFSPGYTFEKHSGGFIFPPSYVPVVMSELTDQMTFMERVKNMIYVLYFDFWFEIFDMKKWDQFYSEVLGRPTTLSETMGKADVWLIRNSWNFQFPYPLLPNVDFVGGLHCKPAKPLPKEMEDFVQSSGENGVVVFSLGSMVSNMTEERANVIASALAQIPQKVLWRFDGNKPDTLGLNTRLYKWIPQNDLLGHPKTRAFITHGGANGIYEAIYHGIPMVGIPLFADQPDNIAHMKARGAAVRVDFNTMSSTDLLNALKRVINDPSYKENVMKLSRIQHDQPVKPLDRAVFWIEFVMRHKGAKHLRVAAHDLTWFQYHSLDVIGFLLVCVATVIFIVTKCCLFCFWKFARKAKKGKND
Experiment: UGT2B7-catalyzed naloxone 3-β-D-glucuronidation in human liver microsomes
Format: in vitro ADME
Conditions: at 50 µM
Experimental: The inhibitory effects of EAM-2201 on UGT1A1, UGT1A3, UGT1A4, UGT1A6, UGT1A9 and UGT2B7 were evaluated using LC-MS/MS and the cocktail of UGT substrates as previously described. Each incubation mixture was prepared in a final volume of 100 µL as follows: ultrapooled human liver microsomes (0.2 mg/mL), 5 mM UDPGA, 10 mM magnesium chloride, alamethicin (25 µg/mL), 50 mM Tris buffer (pH 7.4), various concentrations of EAM-2201 in DMSO (final concentrations of 1–50 µM, 0.5% DMSO) and the UGT enzyme-specific substrates of two cocktail sets (set A: 0.5 µM SN-38, 2 µM chenodeoxycholic acid and 0.5 µM trifluoperazine; set B: 1 µM N-acetylserotonin, 0.2 µM mycophenolic acid and 1 µM naloxone, acetonitrile content, 0.5%). […] Supernatant from sets A and B (50 µL of each) was mixed and aliquots (5 µL) were analyzed by LC-MS/MS. […]
The metabolites formed from the six UGT cocktail substrates were simultaneously measured using LC-MS/MS [41]. […] Each metabolite was quantified via SRM in the negative ion mode: chenodeoxycholic acid 24-acyl-β-glucuronide, 567.2 > 391.0; mycophenolic acid glucuronide, 495.2 > 318.9; and propofol glucuronide (IS), 353.3 > 177.1; and in the positive ion mode: SN-38 glucuronide, 569.0 > 393.0; trifluoperazine glucuronide, 584.2 > 408.1; N-acetylserotonin-β-D-glucuronide, 395.2 > 219.0; naloxone 3-β-D-glucuronide, 504.0 > 310.0; and meloxicam (IS), 352.0 > 115.1. […]

CCc1ccc(C(=O)c2cn(CCCCCF)c3ccccc23)c2ccccc12 [EAM-2201, (4-ethyl-1-naphthalenyl)[1-(5-fluoropentyl)-1H-indol-3-yl]-methanone]
inhibition of UGT2B7-catalyzed naloxone 3-β-D-glucuronidation: negligibly inhibited
